# Experimental data published in patent publication US11278684B2, “Device and method of delivering particles in the upper respiratory tract” (SERVICES MEDICAUX ARNOLD ET JOAN ZIDULKA INC., priority 2016, dated 2022).
# Assay: two rounds of testing on a patient with ciclesonide administered by the oral inhalation / nasal exhalation method
# Type: in vivo
# Conditions: one patient; two sprays of 200 micrograms aerosolized ciclesonide, four to six oral inhalations each followed by nasal exhalation, morning and evening for two weeks; FIG. 3 device
# Source text: The Applicant has performed two rounds of testing on a patient suffering from post-nasal drip and upper laryngeal syndrome with an interval of two weeks between the rounds, each round consisting in administering a therapeutically effective dose of ciclesonide using the method of the present invention. […] In some embodiments, the therapeutically effective dose of ciclesonide for the treatment of upper airway cough syndrome is from 25 to 800 micrograms. Use of ciclesonide for the treatment of upper airway cough syndrome provides the advantage of avoiding fungal infections typically associated with administration of corticosteroid in the posterior nasal region, pharynx and the larynx.
# In conducting the rounds of testing, the Applicant used the embodiment of the oral delivery device of the present invention shown in FIG. 3. […] It should be noted that in some embodiments, the effective volume is greater or smaller than 375 milliliters. In operation, the patient released two sprays of aerosolized ciclesonide into the oral delivery device, each one of the sprays containing 200 micrograms of ciclesonide, and performed four to six oral inhalations, each one of the inhalations being followed by a nasal exhalation into the ambient atmosphere. Each one of the inhalations drew ambient air into the oral delivery device to sweep in an additional amount of aerosolized ciclesonide. […]
smiles,measurement,value
CC(C)C(=O)OCC(=O)[C@@]12O[C@H](C3CCCCC3)O[C@@H]1C[C@H]1[C@@H]3CCC4=CC(=O)C=C[C@]4(C)[C@H]3[C@@H](O)C[C@@]12C [ciclesonide],patient-reported symptoms of upper airway cough syndrome following each round,significant alleviation of the symptoms
